Data taken from patent publication US9456601B2, “Pesticides based on vicinal diols” (priority 2001, dated 2016).
Read-outs that look alike come from different tables or passages of the source.

Key:
[1] = tested on: house dust mite Dermatophagoides pteronyssinus; experiment: House dust mite immersion test, mortality; format: in vivo
Source text: The utility of the vicinal diols is further illustrated by the results of experiments against the house dust mite Dermatophagoides pteronyssinus according to accepted industry protocols. Mites were sealed in a cotton envelope and briefly immersed (5 seconds) in dilute solutions (2.5%) of selected diols. The mites were examined one hour after immersion and mortality calculated. The results are shown in Table 3 below with comparative results for a proprietary carpet shampoo, permethrin insecticide and water (as controls).

house flies = format: in vivo, Musca domestica
Source text: A further example of the use of the compounds of the present invention is shown by testing decane-1,2-diol against house flies in a standard industry protocol for insecticides.

[2] = tested on: human body louse (Pediculus humanus); experiment: LC50 tests against the human body louse; settings: for Potency index: LC50 value compared with that of 1,2-decanediol (=100%); for LC50: read-out: LC50 value; for LC50 / LC50 value: tests against lice (Pediculus humanus)
lice [3] = experiment: Immersion of lice in test formulations, mortality; format: in vivo; settings: immersed for a few seconds and blotted dry
Source text: (§1) Vicinal diols are readily formulated in aqueous systems using non-toxic co-solvents such as isopropyl alcohol or by use of surfactants such as Tween®. This makes them eminently suitable for inclusion into many household or industrial, pesticidal or cleansing products. In particular they can be incorporated into pharmaceutical preparations for use on humans or animals. The treatment of lice and cockroaches with formulations containing 1,2-octanediol or 1,2-decanediol is tabulated in Table 4 along with control results for the solvent systems employed. In a procedure following standard industry protocols the subject animals were immersed for a few seconds in the test formulations and blotted dry. Mortality after 24 hrs was measured for the lice, after 1 hr for the cockroaches.

cockroaches = experiment: Immersion of cockroaches in test formulations, mortality; format: in vivo; settings: immersed for a few seconds and blotted dry
Source text: as §1

lice [4] = experiment: Egg-laying activity of treated lice; format: in vivo; settings: FIG. 2
Source text: FIG. 2 is a further graph illustrating a relationship between diol chain length and egg-laying activity of treated lice.

[5] = tested on: human body louse (Pediculus humanus); settings: in vivo

Row | Compound | Potency index [2] | LC50 [2] [mM] | LC50 value [2] | further results
1 | CCCCCCCCC(O)CO (racemic) [1,2-Decanediol] | 100% | 12 |  | Mortality ([1]; in vivo): 95%; Mortality (house flies; in vivo): More than 80%; pediculicidal activity (in words) ([2]; against lice): significantly superior to 1,3-decanediol
2 | CC1(C)C(C=C(Cl)Cl)C1C(=O)OCc1cccc(Oc2ccccc2)c1 (stereo not drawn) [0.25% Permethrin, Permethrin] |  |  |  | Mortality ([1]; mites in cotton envelope immersed 5 seconds, diols as 2.5% solutions, examined one hour after immersion): 100%; Lice mortality after 24 hr (lice [3]): 100%; Cockroach mortality after 1 hr (cockroaches): 100%
3 | CCCC(O)C(O)CO (stereo not drawn) [1,2,3-Hexanetriol] | Not effective |  | Not calculable | 
4 | OCCCCC(O)CO (stereo not drawn) [1,2,6-Hexanetriol] | Not effective |  | Not calculable | 
5 | CCC(O)CO (stereo not drawn) [1,2-Butanediol] | Not effective |  | >700 mmol | 
6 | CCCCC(O)CO (stereo not drawn) [1,2-Hexanediol] | 6% |  | >200 mmol | 
7 | CCCCCCC(O)CO (stereo not drawn) [1,2-Octanediol] | 30% | 40 |  | Mortality ([1]; in vivo): 65%; prevention of egg laying (in words) (lice [4]): especially efficacious in the prevention of egg laying
8 | CC(O)CCO (stereo not drawn) [1,3-Butanediol] | Not effective |  | >2000 mmol | 
9 | CCCCCCCC(O)CCO (stereo not drawn) [1,3-Decanediol] | 30% | 40 |  | 
10 | CCCCCC(O)CCO (stereo not drawn) [1,3-Octanediol] | Not effective |  | >400 mmol | 
11 | CC(O)CCCCO (stereo not drawn) [1,5-Hexanediol] | Not effective |  | Not calculable | 
12 | OCCCCCCO [1,6-Hexanediol] | Not effective |  |  | LC50 value [5]: Not calculable
13 | CCCCCCCCCCO [1-Decanol] | 32% | 35 |  | 
14 | CC(O)CCC(C)O (stereo not drawn) [2,5-Hexanediol] | Not effective |  | Not calculable | 
15 | CCCCCCCCC(C)O (stereo not drawn) [2-Decanol] | 34% | 37 |  | 
16 | CCCC(O)C(CC)CO (stereo not drawn) [2-Ethyl-1,3-hexanediol] | 20% |  |  | LC50 [5]: 60 mM
17 | CCCCC(CC)CO (stereo not drawn) [2-Ethyl-1-hexanol] | 4% |  |  | LC50 value [5]: 300 mmol
18 | CCCCCCCC(CC)C(O)CO (stereo not drawn) [3-Ethyl-1,2-decanediol] | Not effective |  | Not calculable | 
19 | CCCCCCCC(CC)CCO (stereo not drawn) [3-Ethyl-1-decanol] | 20% | 62 |  | 
20 | CCCCCCCCC(CCCCCCC)C(O)CO (stereo not drawn) [3-Octyl-1,2-decanediol] | 12% | 97 |  | 
21 | CCCCCCC(O)CCC (stereo not drawn) [4-Decanol] | 6% |  | 183 mmol | 
22 | C=CCCCCCCCCO [9-Decene-1-ol] | 36% | 33 |  | 
23 | OCCCCCCCCCCO [decane-1,10-diol] |  |  |  | insecticidal activity (in words) (house flies; house flies): did not exhibit insecticidal activity
